Our source for the IC50 values is US7381749B2, “Sulfonamides as inhibitors of histone deacetylase for the treatment of disease” (Kalypsys, Inc., priority 2004, dated 2008).

One experiment deals with HDAC in cells. The experiment can be described thus: Cellular IC50 (cellular assays: histone hyperacetylation cytoblot / differential cytotoxicity). Format: cell-based. The note with it: transformed cell lines (e.g. HeLa, A549, MCF-7); cell line not specified. On the procedure:
These two secondary assays evaluates a compound's ability to inhibit HDAC in cells by measuring cellular histone acetylation levels. The cytoblot facilitates quantitative EC50 information for cellular HDAC inhibition. Transformed cell lines (e.g. HeLa, A549, MCF-7) are cultured under standard media and culture conditions prior to plating.
Cells (approx. 2,500/well) are allowed to adhere 10-24 hours to wells of a 384-well Greiner PS assay plate in media containing 1-5% serum. Cells are treated with appropriate compound and specific concentrations for 0 to 24 hours. Cells are washed once with PBS (60 ul) and then fixed (95% ethanol, 5% acetic acid or 2% PFA) for 1 minute at RT (30 ul). Cells are blocked with 1% BSA for 1 hour and washed and stained with antibody (e.g. anti-Acetylated Histone H3, Upstate Biotechnology), followed by washing and incubation with an appropriate secondary antibody conjugated to HRP or fluorophore. For luminescence assays, signal is generated using Luminol substrate (Santa Cruz Biotechnology) and detected using an Aquest plate reader (Molecular Devices).
Differential Cytotoxicity Assay:
HDAC inhibitors display differential cytotoxicity toward certain transformed cell lines. Cells are cultured according to standard ATCC recommended conditions that are appropriate to each cell type. Compounds were tested for their ability to kill different cell types (normal and transformed) using the ATPlite luminescence ATP detection assay system (Perkin Elmer). Assays are run in either 384-well or 1536-well Greiner PS plates. Cells (30 ul or 5 ul, respectively) are dispensed using either multichannel pipette for 384-well plates, or proprietary Kalypsys bulk liquid dispenser for 1536-well plates. Compounds added using proprietary pin-transfer device (500 nL or 5 nL) and incubated 5 to 30 hours prior to analysis. Luminescence is measured using Aquest plate reader (Molecular Devices).

The test system of the next experiment is HDAC. The experiment in a line: In vitro HDAC-inhibition assay (Fluor de Lys fluorescent substrate). The experiment is classed as biochemical. To be noted: HDAC enzyme source (e.g. partially purified nuclear extract or immunopurified HDAC complexes). Here is the method:
In vitro HDAC-Inhibition Assay:
This assay measures a compound's ability to inhibit acetyl-lysine deacetylation in vitro and was used as both a primary screening method as well as for IC50 determinations of confirmed inhibitors. The assay is performed in vitro using an HDAC enzyme source (e.g. partially purified nuclear extract or immunopurified HDAC complexes) and a proprietary fluorescent substrate/developer system (HDAC Quantizyme Fluor de Lys Fluorescent Activity Assay, BIOMOL). The assay is run in 1,536-well Greiner white-bottom plates using the following volumes and order of addition: • Step 1: Enzyme (2.5 ul) source added to plate (from refrigerated container) • Step 2: Compounds (50 nl) added with pin transfer device • Step 3: Fluor de Lys (2.5 ul) substrate added, incubate at RT, 30 minutes • Step 4: Developer (5 ul) solution is added (containing TSA), to stop reaction • Step 5: Plate Reader—data collection • The deacetylated fluorophore is excited with 360 nm light and the emitted light (460 nm) is detected on an automated fluorometric plate reader (Aquest, Molecular Devices).

pIC50: −log10 of the molar value.

For `O=C(CSC(=O)c1cccnc1)c1ccc(NS(=O)(=O)c2ccc(OC(F)(F)F)cc2)cc1` [Example 02, Thionicotinic acid S-{2-oxo-2-[4-(4-trifluorometlioxy-benzenesulfonylamino)-phenyl]-ethyl}ester], the negative logarithm of the IC50 (pIC50) in the experiment with HDAC in cells is > 5.00.

Regarding `O=C(CSC(=O)c1ccco1)c1ccc(NS(=O)(=O)c2ccc(OC(F)(F)F)cc2)cc1` [Example 04, Furan-2-carbothioic acid S-{2-oxo-2-[4-(4-trifluoromethoxy-benzenesulfonylamino)-phenyl]-ethyl}ester], the pIC50 in the experiment with HDAC was > 6.00.

`CC(=O)Oc1ccccc1C(=O)SCC(=O)c1ccc(NS(=O)(=O)c2ccc(OC(F)(F)F)cc2)cc1` [Example 06, Acetic acid 2-{2-oxo-2-[4-(4-trifluoromethoxy-benzenesulfonylamino)-phenyl]-ethylsulfanylcarbonyl}-phenyl ester]: the pIC50 in the experiment on HDAC in cells is > 6.00.

In the case of `CN(C)c1ccc(C(=O)SCC(=O)c2ccc(NS(=O)(=O)c3ccc(OC(F)(F)F)cc3)cc2)cc1` [Example 07], the pIC50 with HDAC in cells was > 5.00; with HDAC, > 6.00.

On to `COC(=O)SCC(=O)c1ccc(NS(=O)(=O)c2ccc(OC(F)(F)F)cc2)cc1` [Example 08, Thiocarbonic acid O-methyl ester S-{2-oxo-2-[4-(4-trifluoromethoxy-benzenesulfonylamino)-phenyl]-ethyl}ester], for which the pIC50 in the experiment on HDAC in cells was > 6.00; in the experiment on HDAC, > 5.00.

As to `O=C(CSC(=O)c1ccccn1)c1ccc(NS(=O)(=O)c2ccc(OC(F)(F)F)cc2)cc1` [Example 09, Pyridine-2-carbothioic acid S-{2-oxo-2-[4-(4-trifluoromethoxy-benzenesulfonylamino)-phenyl]-ethyl}ester], the negative-log IC50 (pIC50) with HDAC in cells and in the experiment with HDAC was > 6.00 throughout.

Regarding `NCC(=O)SCC(=O)c1ccc(NS(=O)(=O)c2ccc(OC(F)(F)F)cc2)cc1` [Example 11, Amino-thioacetic acid S-{2-oxo-2-[4-(4-trifluoromethoxy-benzenesulfonylamino)-phenyl]-ethyl}ester], in the experiment on HDAC, the pIC50 was > 6.00.

For the compound `CC(=O)SCC(=O)c1ccc(N(C)S(=O)(=O)c2ccc(OC(F)(F)F)cc2)cc1` [Example 12, Thioacetic acid S-(2-{4-[methyl-(4-trifluoromethoxy-benzenesulfonyl)-amino]phenyl}-2-oxo-ethyl)ester], the negative-log IC50 (pIC50) in the experiment with HDAC in cells is > 5.00.

Take `CC(=O)SCC(=O)c1ccc(N(C(C)C)S(=O)(=O)c2ccc(OC(F)(F)F)cc2)cc1` [Example 13, Thioacetic acid S-(2-{4-[isopropyl-(4-trifluoromethoxy-benzenesulfonyl)-amino]-phenyl}-2-oxo-ethyl)ester]: in the experiment on HDAC, the pIC50 was > 5.00.

With `CC(=O)SCC(=O)c1ccc(NS(=O)(=O)c2ccc(OC(F)(F)F)cc2)cc1Cl` [Example 14, Thioacetic acid S-{2-[2-chloro-4-(4-trifluoromethoxy-benzenesulfonylamino)-phenyl]-2-oxo-ethyl}ester], the negative-log IC50 (pIC50) with HDAC in cells was > 4.30; in the experiment with HDAC it was > 6.00.

Turning to `CC(=O)SCC(=O)c1ccc(NS(=O)(=O)c2ccc(OC(F)(F)F)cc2)c(F)c1` [Example 15, Thioacetic acid S-{2-[3-fluoro-4-(4-trifluoromethoxy-benzenesulfonylamino)-phenyl]-2-oxo-ethyl}ester], in the experiment with HDAC, the negative logarithm of the IC50 (pIC50) was > 6.00.

`CC(=O)SCC(=O)c1ccc(NS(=O)(=O)c2ccc(C)cc2)cc1` [Example 16, Thioacetic acid S-{12-oxo-2-[4-(toluene-4-sulfonylamino)-phenyl]-ethyl}ester]: the pIC50 in the experiment on HDAC in cells and in the experiment on HDAC was > 6.00 throughout.

Consider `CC(=O)SCC(=O)c1ccc(NS(=O)(=O)c2cccc(C(F)(F)F)c2)cc1` [Example 17, Thioacetic acid S-{2-oxo-2-[4-(3-trifluoromethyl-benzenesulfonylamino)-phenyl]-ethyl}ester], for which the pIC50 in the experiment on HDAC in cells was > 5.00; with HDAC, > 6.00.

In the case of `CC(=O)SCC(=O)c1ccc(NS(=O)(=O)c2ccc(F)cc2C)cc1` [Example 18, Thioacetic acid S-{2-[4-(4-fluoro-2-methyl-benzenesulfonylamino)-phenyl]-2-oxo-ethyl}ester], the negative logarithm of the IC50 (pIC50) with HDAC in cells and with HDAC was > 6.00 throughout.

Regarding `CC(=O)SCC(=O)c1ccc(NS(=O)(=O)c2ccc(Cl)c(C(F)(F)F)c2)cc1` [Example 20, Thioacetic acid S-{2-[4-(4-chloro-3-trifluoromethyl-benzenesulfonylamino)-phenyl]-2-oxo-ethyl}ester], the pIC50 in the experiment with HDAC in cells and with HDAC was > 6.00 in each case.

Consider `COc1cccc(S(=O)(=O)Nc2ccc(C(=O)CSC(C)=O)cc2)c1` [Example 21, Thioacetic acid S-{2-[4-(3-methoxy-benzenesulfonylamino)-phenyl]-2-oxo-ethyl}ester], for which the pIC50 with HDAC in cells and with HDAC was > 6.00 throughout.

`CCS(=O)(=O)Nc1ccc(C(=O)CSC(C)=O)cc1` [Example 22, Thioacetic acid S-[2-(4-ethanesulfonylamino-phenyl)-2-oxo-ethyl]ester]: the pIC50 with HDAC in cells was > 5.00; in the experiment on HDAC it was > 6.00.

Turning to `CC(=O)SCC(=O)c1ccc(NS(=O)(=O)c2cc(C)cc(C)c2)cc1` [Example 23, Thioacetic acid 2-[4-(3,5-dimethyl-benzenesulfonylamino)-phenyl]-2-oxo-ethyl ester], the pIC50 in the experiment with HDAC in cells is > 5.00; in the experiment with HDAC, > 6.00.

`CC(=O)SCC(=O)c1ccc(NS(=O)(=O)c2cn(C)c(C)n2)cc1` [Example 24, Thioacetic acid S-{2-[4-(1,2-dimethyl-1H-imidazole-4-sulfonylamino)-phenyl]-2-oxo-ethyl}ester]: the negative logarithm of the IC50 (pIC50) was > 5.00 with HDAC in cells and > 6.00 in the experiment with HDAC.

In the case of `CC(=O)SCC(=O)c1ccc(NS(=O)(=O)C(C)C)cc1` [Example 25, Thioacetic acid S-{2-oxo-2-[4-(propane-2-sulfonylamino)-phenyl]-ethyl}ester], the pIC50 in the experiment with HDAC was > 6.00.

On to `COc1ccc(S(=O)(=O)Nc2ccc(C(=O)CSC(C)=O)cc2)cc1OC` [Example 27], for which the pIC50 in the experiment with HDAC in cells and in the experiment with HDAC was > 6.00 throughout.

On to `CC(=O)SCC(=O)c1ccc(NS(=O)(=O)c2ccc(Cl)cc2Cl)cc1` [Example 28], for which the pIC50 in the experiment with HDAC in cells and in the experiment on HDAC was > 6.00 in each case.

As to `CC(=O)SCC(=O)c1ccc(NS(=O)(=O)c2c(C)noc2C)cc1` [Example 29], the pIC50 was > 5.00 in the experiment with HDAC in cells and > 6.00 with HDAC.

For `CC(=O)SCC(=O)c1ccc(NS(=O)(=O)c2sc(C)nc2C)cc1` [Example 30], the pIC50 in the experiment with HDAC in cells and in the experiment on HDAC was > 6.00 in each case.

In the case of `CC(=O)SCC(=O)c1ccc(NS(=O)(=O)c2cc(C)oc2C)cc1` [Example 31], the pIC50 in the experiment on HDAC in cells was > 5.00.

Consider `CC(=O)SCC(=O)c1ccc(NS(=O)(=O)c2ccccc2)cc1` [Example 33], for which the pIC50 in the experiment on HDAC in cells was > 5.00; with HDAC it was > 6.00.

For `CC(=O)SCC(=O)c1ccc(NS(=O)(=O)c2ccc(F)cc2)cc1` [Example 34], the pIC50 in the experiment with HDAC in cells and in the experiment with HDAC was > 6.00 throughout.

Turning to `CC(=O)SCC(=O)c1ccc(NS(=O)(=O)c2ccccc2F)cc1` [Example 35], the pIC50 in the experiment with HDAC in cells and in the experiment on HDAC was > 6.00 throughout.

For the compound `CC(=O)SCC(=O)c1ccc(NS(=O)(=O)c2ccc(Cl)cc2)cc1` [Example 36], the pIC50 in the experiment with HDAC in cells and with HDAC was > 6.00 throughout.

Turning to `CC(=O)SCC(=O)c1ccc(NS(=O)(=O)c2cccc(Cl)c2)cc1` [Example 37], the pIC50 in the experiment on HDAC in cells and in the experiment with HDAC was > 6.00 each time.

Consider `CC(=O)SCC(=O)c1sc(NS(=O)(=O)c2ccc(OC(F)(F)F)cc2)nc1C` [Example 42], for which, in the experiment on HDAC, the pIC50 was > 4.30.

For `CC(=O)SCC(=O)c1sc(NS(=O)(=O)c2ccc(Cl)c(Cl)c2)nc1C` [Example 43, Thioacetic acid-S-{2-[2-(3,4-Dichlorobenzenesulfonylamino)-4-methyl-thiazol-5-yl]-2-oxo-ethyl}-ester], in the experiment on HDAC, the negative logarithm of the IC50 (pIC50) is > 4.30.

For `CC(=O)SCC(=O)c1ccc(S(=O)(=O)Nc2ccc(OC(F)(F)F)cc2)cc1` [Example 45, Thioacetic acid S-{2-oxo-2-[4-(4-trifluoromethoxy-phenylsulfamoyl)-phenyl]-ethyl}ester], in the experiment with HDAC in cells, the negative-log IC50 (pIC50) is > 5.00.
